# Measured values taken from patent publication US20210196751A1, “METHODS OF CANCER TREATMENT USING AN ATR INHIBITOR” (Vertex Pharmaceuticals Incorporated, priority 2017, published 2021).
# Test system: panel of 552 cancer cell lines
# Assay: Growth inhibition (ATPLite) of ATR inhibitor in combination with cisplatin or gemcitabine; synergy score from AUC difference
# Assay type: cell-based
# Settings: 96 hours; for synergy when combined with cisplatin: in combination with cisplatin; for synergy when combined with gemcitabine: in combination with gemcitabine
# Description: Cell Culture Methods. Cells were removed from liquid nitrogen storage, thawed and expanded in appropriate growth media. Once expanded, cells were seeded in 384-well tissue culture treated plates at 500 cells per well. […] At the end of either 0 hours or 96 hours, cell status was analyzed using ATPLite (adenosine triphosphate monitoring system; Perkin Elmer) to assess the biological response of cells to drug combinations.
# In this study, growth inhibition (GI) was used as the primary endpoint. ATP monitoring was performed using ATPLite, which allows for the monitoring of cytocidal, cytostatic and proliferative effects of drugs on cells.
# Data Analysis to Assess Synergy of Combination Treatments. […] Synergy was evaluated using the sum of the AUC (Area Under the Curve) difference.
# Briefly, combination treatment effect was calculated as the AUC normalized to the single agent effect of the ATR inhibitor compound. Total synergy or antagonism was calculated as the difference between the normalized combination AUC and the genotoxin single agent AUC. As before, the synergy score was normalized by dividing the total synergy score by the total number of regimens used.
Structure (SMILES),synergy when combined with cisplatin,synergy when combined with gemcitabine
CNCc1ccc(-c2cc(-c3nc(-c4ccc(S(=O)(=O)C(C)C)cc4)cnc3N)on2)cc1 [IIA-7],synergistic,synergistic
Nc1nn2cc(F)cnc2c1C(=O)Nc1cncc(F)c1N1CCC(C(=O)N2CCN(C3COC3)CC2)CC1 [I-G-32],synergistic,synergistic
